System: primary human osteoclasts (enriched monocytic cells)
Assay: Cell viability assay (methylene blue)
Type: cell-based
Conditions: 48 h incubation
Procedure: Figure 5 Labeling of endogenous cathepsin K in intact human osteoclast cells. Enriched human monocytes from PBMC were isolated from healthy donors’ blood, cells were treated with MCSF and RANKL or MCSF alone as indicated for 14 days. a–c) Osteoclasts were treated with vehicle (DMSO) or inhibitors ODN or GD30 [3 µM] in a culture medium for 2 h, followed by incubation with GD32 or GD42 for 8 h or GB123 for 2 h similar to as described in Figure 4. (a, b) Confocal fluorescent microscopy of GD32 and GB123 treated cells after fixation. c) Live cell imaging with GD42. d) SDS PAGE of the human osteoclasts and macrophages incubated with DMSO, ODN or GD30 [5 µM] followed by incubation with GD32 or GD42 [5 µM] for 8 h. e) The same gel was analyzed by western blot with an anti‐CTSK antibody. […] Red fluorescence marks cathepsin activity (ABPs) and blue fluorescence marks nucleus (DAPI). g–i) Cell viability assay. […] After 48 h incubation cells were fixed, and viability was measured by methylene blue. The data were expressed as a percentage of control; data represent the mean of two experiments with triplicates for each treatment (± Standard Deviation). […]
with 5µM GD32 for 24 h prior to the cell lysis. Cell lysates were prepared and analyzed as […]
analyzed as previously described. […]
After 48 h cells were fixed, and viability was measured by quantitative colorimetric assay using […]

Row | Structure (SMILES) | cytotoxicity
1 | C#CCNC(=O)[C@H](CC(C)C)N[C@@H](c1ccc(-c2ccc(S(=O)(=O)CCNC(=O)OC(C)(C)C)cc2)cc1)C(F)(F)F [GD30] | No toxicity
2 | C#CCNC(=O)[C@H](CC(C)C)N[C@@H](c1ccc(-c2ccc(S(=O)(=O)CCNC(=O)CCCCC[N+]3=C(/C=C/C=C/C=C4/N(C)c5ccc(S(=O)(=O)O)cc5C4(C)C)C(C)(C)c4cc(S(=O)(=O)O)ccc43)cc2)cc1)C(F)(F)F [GD32] | No toxicity

Reference: paper PMC11481179, “Development and Application of Reversible and Irreversible Covalent Probes for Human and Mouse Cathepsin‐K Activity Detection, Revealing Nuclear Activity” (Advanced Science, 2024)
